Entries after “also recorded” stand apart in the source; their conditions may differ.
Tests used:
Assay type in all cases: cell-based, human
[1] = system: pEBS7 (ATM-null) cells; assay: Radio-potentiation, colony formation after ionising radiation; settings: for % survival: ATM-null pEBS7
Method: (§1) The A-T fibroblast AT221JE-T cells (pEBS7, herein referred to as ATM-null cells) and the trans-complemented ATM+/+ (pEBS7-YZ5, herein referred to as ATM-competent cells) were grown in DMEM+20% FBS PSG and 100 ug/ml hygromycin. These cells are immortalised fibroblasts from an A-T patient which were transfected with pEBS7-YZ5 vector coding for full length ATM and the hygromycin resistance marker or pEBS7 vector, coding for the hygromycin resistance marker only. (Ziv Y et al (1997) Oncogene 15, 159-67)
(§2) To show radio-potentiation, 2×10^5 cells per well were seeded into 6 well cluster plates. One plate was used for each dose of irradiation. After allowing the cells to adhere for 4 hours, the cells were dosed with a final concentration of 0.5 μM of the DNA-PKcs inhibitor KU-0060648 or equivalent DMSO/PBS control. After further incubation for 1 hour, the cells were irradiated with 0, 0.5, 1, 2 and 4 Grays. After 16 hours incubation, the cells were washed with 1 ml PBS and 500 μl trypsin EDTA added for 5 minutes at 37° C. 1.5 ml fresh medium was then added and the cell density in the untreated (0 Gy) wells determined. All subsequent calculations for seeding densities were performed according to this cell count. Cells were then replated into 2 mls fresh medium in 6 well cluster plates at the appropriate cell densities. After 6 days' incubation, the medium was removed by aspiration and cell colonies stained using 400 μl per well Giemsa stain for 20 minutes. Excess stain was washed from the plates with tap water and the plates left to air-dry. The number of colonies per well was then counted using Colcount software.

[2] = system: pEBS7-YZ5 (ATM-competent, ATM+/+) cells; assay: as above; settings: for % survival: ATM-competent pEBS7-YZ
Method: as §1, §2

[3] = system: pEBS7 (ATM-null) cells; assay: Chemopotentiation, sulforhodamine B growth assay in 96 well plates; settings: for % survival / Avg (absorbance at 564 nm): pEBS7
Method: as §1
(§3) Following a 4-hour incubation to allow cell adherence, 5 μl DNA-PKcS inhibitor KU-0060648 (final concentration 0.5 μM) or DMSO/PBS equivalent was added. After a further 1 hour incubation, 5 μl of chemotherapeutic drug was added per well (see table 1). Drugs were removed after 16 hours and 150 μl fresh medium added per well. After 24h, one plate for each cell line was fixed and stained to account for background differences between the lines. Five days after seeding, the medium was aspirated from the wells of the remaining assay plates and 100 μl ice cold 10% TCA added for 30 minutes at 4° C. The wells were then washed four times with tap water and 50 μl 0.4% sulforhodamine B in 1% acetic acid added per well. After 15 minutes incubation at room temperature, excess stain was washed from the wells with 1% acetic acid. 100 μl […] pH6.8 was then added per well, the plates shaken to resuspend the stain and the absorbance at 564 nm determined.

[4] = system: pEBS7-YZ5 (ATM-competent, ATM+/+) cells; assay: as above; settings: for % survival / Avg (absorbance at 564 nm): pEBS7-YZ
Method: as §1, §3

[5] = KU-0060648 0.5 μM + doxorubicin 0
[6] = KU-0060648 0.5 μM + doxorubicin 0.01 (unit not given)
[7] = KU-0060648 0.5 μM + doxorubicin 0.025 (unit not given)
[8] = KU-0060648 0.5 μM + doxorubicin 0.05 (unit not given)
[9] = KU-0060648 0.5 μM + doxorubicin 0.075 (unit not given)
[10] = KU-0060648 0.5 μM + doxorubicin 0.1 (unit not given)
[11] = KU-0060648 0.5 μM + doxorubicin 0.25 (unit not given)
[12] = KU-0060648 0.5 μM + doxorubicin 0.5 (unit not given)
[13] = KU-0060648 0.5 μM + doxorubicin 0.75 (unit not given)
[14] = KU-0060648 0.5 μM + doxorubicin 1 (unit not given)
[15] = KU-0060648 0.5 μM + doxorubicin 2.5 (unit not given)
[16] = KU-0060648 0.5 μM + doxorubicin 5 (unit not given)
[17] = KU-0060648 0.5 μM + etoposide 0
[18] = KU-0060648 0.5 μM + etoposide 0.01 (μg/ml per Table 1)
[19] = KU-0060648 0.5 μM + etoposide 0.025 (μg/ml per Table 1)
[20] = KU-0060648 0.5 μM + etoposide 0.05 (μg/ml per Table 1)
[21] = KU-0060648 0.5 μM + etoposide 0.075 (μg/ml per Table 1)
[22] = KU-0060648 0.5 μM + etoposide 0.1 (μg/ml per Table 1)
[23] = KU-0060648 0.5 μM + etoposide 0.25 (μg/ml per Table 1)
[24] = KU-0060648 0.5 μM + etoposide 0.5 (μg/ml per Table 1)
[25] = KU-0060648 0.5 μM + etoposide 0.75 (μg/ml per Table 1)
[26] = KU-0060648 0.5 μM + etoposide 1 (μg/ml per Table 1)
[27] = KU-0060648 0.5 μM + etoposide 2.5 (μg/ml per Table 1)
[28] = KU-0060648 0.5 μM + etoposide 5 (μg/ml per Table 1)

CCN1CCN(CC(=O)Nc2ccc(-c3cccc4c(=O)cc(N5CCOCC5)oc34)c3sc4ccccc4c23)CC1 [KU-0060648, 2-(4-Ethyl-piperazin-1-yl)-N-[4-(2-morpholin-4-yl-4-oxo-4H-1-benzopyran-8-yl)-dibenzothiophen-1-yl]-acetamide]
potentiation of the effect of irradiation ([1]; ATM-null cells): increased sensitivity; also recorded: significantly potentiate | % survival ([1]; KU-0060648 0.5 μM + IR 0 Gy): 100.0% | % survival ([1]; KU-0060648 0.5 μM + IR 0.5 Gy): 15.8% | % survival ([1]; KU-0060648 0.5 μM + IR 1 Gy): 3.8% | % survival ([1]; KU-0060648 0.5 μM + IR 2 Gy): 1.3% | % survival ([1]; KU-0060648 0.5 μM + IR 4 Gy): 0.3% | 2Gy DMR (dose modification ratio) ([1]; single 2 Gy without / with KU-0060648 (0.5 μM), pEBS7 (ATM-null)): 5.7 | potentiation of the effect of irradiation ([2]; ATM-competent cells): not | % survival ([2]; KU-0060648 0.5 μM + IR 0 Gy): 100.0% | % survival ([2]; KU-0060648 0.5 μM + IR 0.5 Gy): 39.3% | % survival ([2]; KU-0060648 0.5 μM + IR 1 Gy): 13.5% | % survival ([2]; KU-0060648 0.5 μM + IR 2 Gy): 6.2% | % survival ([2]; KU-0060648 0.5 μM + IR 4 Gy): 1.7% | 2Gy DMR (dose modification ratio) ([2]; single 2 Gy without / with KU-0060648 (0.5 μM), pEBS7-YZ (ATM-competent)): 2.0 | potentiation of etoposide ([3]; ATM-null cells): increased sensitisation; also recorded: significantly potentiated | potentiation of the effect of doxorubicin ([3]; ATM-null cells): increased sensitivity; also recorded: significantly potentiate | % survival [3, 5]: 100% | Avg (absorbance at 564 nm) [3, 5]: 1.42 | % survival [3, 6]: 107.9% | Avg (absorbance at 564 nm) [3, 6]: 1.53 | % survival [3, 7]: 87.0% | Avg (absorbance at 564 nm) [3, 7]: 1.23 | % survival [3, 8]: 81.3% | Avg (absorbance at 564 nm) [3, 8]: 1.15 | % survival [3, 9]: 82.3% | Avg (absorbance at 564 nm) [3, 9]: 1.17 | % survival [3, 10]: 88.7% | Avg (absorbance at 564 nm) [3, 10]: 1.26 | % survival [3, 11]: 22.1% | Avg (absorbance at 564 nm) [3, 11]: 0.31 | % survival [3, 12]: 6.2% | Avg (absorbance at 564 nm) [3, 12]: 0.09 | % survival [3, 13]: 0.6% | Avg (absorbance at 564 nm) [3, 13]: 0.01 | % survival [3, 14]: −2.2% | Avg (absorbance at 564 nm) [3, 14]: −0.03 | % survival [3, 15]: −2.0% | Avg (absorbance at 564 nm) [3, 15]: −0.03 | % survival [3, 16]: −0.8% | Avg (absorbance at 564 nm) [3, 16]: −0.01 | % survival [3, 17]: 100% | Avg (absorbance at 564 nm) [3, 17]: 1.61 | % survival [3, 18]: 84.7% | Avg (absorbance at 564 nm) [3, 18]: 1.36 | % survival [3, 19]: 72.7% | Avg (absorbance at 564 nm) [3, 19]: 1.17 | % survival [3, 20]: 72.7% | Avg (absorbance at 564 nm) [3, 20]: 1.17 | % survival [3, 21]: 62.3% | Avg (absorbance at 564 nm) [3, 21]: 1.00 | % survival [3, 22]: 27.9% | Avg (absorbance at 564 nm) [3, 22]: 0.45 | % survival [3, 23]: 13.6% | Avg (absorbance at 564 nm) [3, 23]: 0.22 | % survival [3, 24]: 7.9% | Avg (absorbance at 564 nm) [3, 24]: 0.13 | % survival [3, 25]: 1.2% | Avg (absorbance at 564 nm) [3, 25]: 0.02 | % survival [3, 26]: −0.4% | Avg (absorbance at 564 nm) [3, 26]: −0.01 | % survival [3, 27]: −1.5% | Avg (absorbance at 564 nm) [3, 27]: −0.02 | % survival [3, 28]: −1.7% | Avg (absorbance at 564 nm) [3, 28]: −0.03 | potentiation of etoposide ([4]; ATM-competent cells): not | potentiation of the effect of doxorubicin ([4]; ATM-competent cells): not | % survival [4, 5]: 100% | Avg (absorbance at 564 nm) [4, 5]: 1.62 | % survival [4, 6]: 92.3% | Avg (absorbance at 564 nm) [4, 6]: 1.50 | % survival [4, 7]: 96.1% | Avg (absorbance at 564 nm) [4, 7]: 1.56 | % survival [4, 8]: 102.9% | Avg (absorbance at 564 nm) [4, 8]: 1.67 | % survival [4, 9]: 94.1% | Avg (absorbance at 564 nm) [4, 9]: 1.53 | % survival [4, 10]: 98.5% | Avg (absorbance at 564 nm) [4, 10]: 1.60 | % survival [4, 11]: 80.4% | Avg (absorbance at 564 nm) [4, 11]: 1.30 | % survival [4, 12]: 36.6% | Avg (absorbance at 564 nm) [4, 12]: 0.59 | % survival [4, 13]: 23.4% | Avg (absorbance at 564 nm) [4, 13]: 0.38 | % survival [4, 14]: 1.1% | Avg (absorbance at 564 nm) [4, 14]: 0.02 | % survival [4, 15]: −2.1% | Avg (absorbance at 564 nm) [4, 15]: −0.03 | % survival [4, 16]: −1.9% | Avg (absorbance at 564 nm) [4, 16]: −0.03 | % survival [4, 17]: 100% | Avg (absorbance at 564 nm) [4, 17]: 1.79 | % survival [4, 18]: 88.8% | Avg (absorbance at 564 nm) [4, 18]: 1.59 | % survival [4, 19]: 84.9% | Avg (absorbance at 564 nm) [4, 19]: 1.52 | % survival [4, 20]: 87.2% | Avg (absorbance at 564 nm) [4, 20]: 1.56 | % survival [4, 21]: 86.1% | Avg (absorbance at 564 nm) [4, 21]: 1.54 | % survival [4, 22]: 88.9% | Avg (absorbance at 564 nm) [4, 22]: 1.59 | % survival [4, 23]: 102.7% | Avg (absorbance at 564 nm) [4, 23]: 1.84 | % survival [4, 24]: 55.0% | Avg (absorbance at 564 nm) [4, 24]: 0.99 | % survival [4, 25]: 27.6% | Avg (absorbance at 564 nm) [4, 25]: 0.49 | % survival [4, 26]: 4.5% | Avg (absorbance at 564 nm) [4, 26]: 0.08 | % survival [4, 27]: 5.7% | Avg (absorbance at 564 nm) [4, 27]: 0.10 | % survival [4, 28]: 8.6% | Avg (absorbance at 564 nm) [4, 28]: 0.15
